{"source": "patent US20070196406A1", "about": "“1,3-Dimethylbutyl carboxanilides for controlling undesirable micro-organisms” (priority 2003, published 2007)", "data": [{"tested_on": "Sphaerotheca fuliginea", "test": "Sphaerotheca test (cucumber)/protective", "type": "in vivo", "settings": "cucumber plants, protective spray, 750 g/ha, evaluation 7 days after inoculation", "method": "Sphaerotheca Test (Cucumber)/Protective\nSolvent: 49 parts by weight of N,N-dimethylformamide\nEmulsifier: 1 part by weight of alkylaryl polyglycol ether\nTo produce a suitable preparation of active compound, 1 part by weight of active compound is mixed with the stated amounts of solvent and emulsifier, and the concentrate is diluted with water to the desired concentration.\nTo test for protective activity, young cucumber plants are sprayed with the preparation of active compound at the stated application rate. One day after the treatment, the plants are inoculated with a spore suspension of Sphaerotheca fuliginea. The plants are then placed in a greenhouse at 70% relative atmospheric humidity and a temperature of 23° C.\nEvaluation is carried out 7 days after the inoculation. 0% means an efficacy which corresponds to that of the control, whereas an efficacy of 100% means that no infection is observed.", "units": {"Efficacy in %": "%"}, "values": [{"smiles": "Cc1sccc1C(=O)Nc1ccc(F)cc1C(C)CC(C)C", "note": "(stereo not drawn) [drawing 133]", "Efficacy in %": 100}, {"smiles": "CC(C)CC(C)c1ccccc1NC(=O)c1cn(C)nc1Cl", "note": "(stereo not drawn) [drawing 131]", "Efficacy in %": 100}, {"smiles": "CC(C)CC(C)c1cc(F)ccc1NC(=O)c1cn(C)nc1C(F)(F)F", "note": "(stereo not drawn) [drawing 132]", "Efficacy in %": 100}]}]}
